Assays:
Adenosine receptor A2a = Adenosine receptor A2a (Homo sapiens, UniProt P29274)
[1] = target: T1, Alpha-2A adrenergic receptor (Homo sapiens, UniProt P08913); format: functional, cell-based
T1 sequence (P08913 whole entry): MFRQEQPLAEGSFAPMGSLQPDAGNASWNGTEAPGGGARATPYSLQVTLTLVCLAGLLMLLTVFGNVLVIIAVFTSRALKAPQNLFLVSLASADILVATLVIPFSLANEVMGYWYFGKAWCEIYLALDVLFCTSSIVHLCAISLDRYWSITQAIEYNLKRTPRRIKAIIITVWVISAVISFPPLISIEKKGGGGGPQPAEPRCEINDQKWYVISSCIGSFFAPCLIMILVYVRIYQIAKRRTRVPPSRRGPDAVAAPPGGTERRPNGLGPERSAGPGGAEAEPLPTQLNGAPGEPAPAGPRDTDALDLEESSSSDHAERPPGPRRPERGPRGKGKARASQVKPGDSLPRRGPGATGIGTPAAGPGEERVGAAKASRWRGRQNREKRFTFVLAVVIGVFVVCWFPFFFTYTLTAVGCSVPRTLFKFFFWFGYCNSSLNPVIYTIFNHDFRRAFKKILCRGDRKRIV

Vasopressin V2 receptor = Vasopressin V2 receptor (Homo sapiens, UniProt P30518)
B2 bradykinin receptor = target: T2, B2 bradykinin receptor (Homo sapiens, UniProt P30411)
T2 sequence (P30411 whole entry): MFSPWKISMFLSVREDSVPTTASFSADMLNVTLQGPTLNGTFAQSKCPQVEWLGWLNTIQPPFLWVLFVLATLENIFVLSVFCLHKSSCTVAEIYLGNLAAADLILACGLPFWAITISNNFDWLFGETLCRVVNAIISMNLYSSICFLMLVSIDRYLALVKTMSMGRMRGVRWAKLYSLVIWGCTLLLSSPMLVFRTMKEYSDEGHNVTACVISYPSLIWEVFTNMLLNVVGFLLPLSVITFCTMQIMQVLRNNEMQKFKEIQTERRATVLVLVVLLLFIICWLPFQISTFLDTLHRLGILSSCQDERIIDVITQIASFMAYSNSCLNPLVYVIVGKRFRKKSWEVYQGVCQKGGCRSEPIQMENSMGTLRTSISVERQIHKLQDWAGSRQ

[2] = target: T3, Gastrin/cholecystokinin type B receptor (Homo sapiens, UniProt P32239)
T3 sequence (P32239 whole entry): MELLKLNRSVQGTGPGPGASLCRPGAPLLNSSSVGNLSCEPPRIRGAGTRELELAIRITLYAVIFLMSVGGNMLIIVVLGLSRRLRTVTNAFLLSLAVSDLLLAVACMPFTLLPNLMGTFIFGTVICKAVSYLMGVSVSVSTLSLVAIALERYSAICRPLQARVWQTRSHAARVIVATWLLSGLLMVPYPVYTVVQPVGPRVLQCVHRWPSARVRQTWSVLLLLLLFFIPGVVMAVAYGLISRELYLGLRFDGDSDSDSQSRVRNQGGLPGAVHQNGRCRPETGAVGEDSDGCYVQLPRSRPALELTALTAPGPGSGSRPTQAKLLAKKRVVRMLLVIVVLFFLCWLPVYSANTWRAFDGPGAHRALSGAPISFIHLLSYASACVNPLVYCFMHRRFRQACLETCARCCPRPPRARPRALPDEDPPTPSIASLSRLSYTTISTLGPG

Cannabinoid receptor 1 = Cannabinoid receptor 1 (Homo sapiens, UniProt P21554); format: functional, cell-based
Estrogen receptor = target: T4, Estrogen receptor (Homo sapiens, UniProt P03372)
T4 sequence (P03372 whole entry): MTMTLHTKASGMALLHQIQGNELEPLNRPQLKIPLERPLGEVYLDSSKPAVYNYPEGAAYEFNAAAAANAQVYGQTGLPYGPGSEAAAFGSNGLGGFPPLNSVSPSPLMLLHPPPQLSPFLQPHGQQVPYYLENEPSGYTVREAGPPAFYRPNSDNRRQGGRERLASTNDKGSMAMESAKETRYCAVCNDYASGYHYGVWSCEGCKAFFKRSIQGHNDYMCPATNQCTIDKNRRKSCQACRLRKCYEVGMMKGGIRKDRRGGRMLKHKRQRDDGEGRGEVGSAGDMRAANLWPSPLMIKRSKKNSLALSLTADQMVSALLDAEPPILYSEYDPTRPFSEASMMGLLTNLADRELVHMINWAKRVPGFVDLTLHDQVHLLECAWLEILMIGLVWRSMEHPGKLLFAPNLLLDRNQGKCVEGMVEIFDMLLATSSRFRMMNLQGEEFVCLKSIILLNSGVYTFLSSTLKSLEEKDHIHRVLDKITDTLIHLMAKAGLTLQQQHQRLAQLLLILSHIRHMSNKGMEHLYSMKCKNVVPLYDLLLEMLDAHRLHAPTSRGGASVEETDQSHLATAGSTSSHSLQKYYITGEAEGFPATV

[3] = target: Gamma-aminobutyric acid receptor subunit alpha-1 (Rattus norvegicus, UniProt P62813); format: functional
[4] = target: 5-hydroxytryptamine receptor 2B (Homo sapiens, UniProt P41595); format: functional, cell-based
Motilin receptor = Motilin receptor (Homo sapiens, UniProt O43193)
[5] = target: Kappa-type opioid receptor (Homo sapiens, UniProt P41145)
Mu-type opioid receptor = Mu-type opioid receptor (Homo sapiens, UniProt P35372)
D(3) dopamine receptor = D(3) dopamine receptor (Homo sapiens, UniProt P35462)
[6] = target: T5, Alpha-2B adrenergic receptor (Homo sapiens, UniProt P18089)
T5 sequence (P18089 whole entry): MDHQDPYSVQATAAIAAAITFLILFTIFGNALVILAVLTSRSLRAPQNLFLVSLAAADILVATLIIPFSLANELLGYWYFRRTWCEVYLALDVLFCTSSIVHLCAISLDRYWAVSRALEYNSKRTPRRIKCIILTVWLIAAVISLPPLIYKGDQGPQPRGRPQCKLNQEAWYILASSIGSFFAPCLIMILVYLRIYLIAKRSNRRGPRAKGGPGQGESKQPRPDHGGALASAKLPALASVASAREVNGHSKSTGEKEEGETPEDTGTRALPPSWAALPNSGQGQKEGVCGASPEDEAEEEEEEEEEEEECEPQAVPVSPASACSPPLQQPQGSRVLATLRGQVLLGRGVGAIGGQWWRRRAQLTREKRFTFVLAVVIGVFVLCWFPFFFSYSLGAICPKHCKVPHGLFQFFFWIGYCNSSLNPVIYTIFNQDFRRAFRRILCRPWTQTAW

[7] = target: Sodium-dependent serotonin transporter (Homo sapiens, UniProt P31645)
Further: assay procedure not described here.

Sequence of D(3) dopamine receptor (P35462 whole entry): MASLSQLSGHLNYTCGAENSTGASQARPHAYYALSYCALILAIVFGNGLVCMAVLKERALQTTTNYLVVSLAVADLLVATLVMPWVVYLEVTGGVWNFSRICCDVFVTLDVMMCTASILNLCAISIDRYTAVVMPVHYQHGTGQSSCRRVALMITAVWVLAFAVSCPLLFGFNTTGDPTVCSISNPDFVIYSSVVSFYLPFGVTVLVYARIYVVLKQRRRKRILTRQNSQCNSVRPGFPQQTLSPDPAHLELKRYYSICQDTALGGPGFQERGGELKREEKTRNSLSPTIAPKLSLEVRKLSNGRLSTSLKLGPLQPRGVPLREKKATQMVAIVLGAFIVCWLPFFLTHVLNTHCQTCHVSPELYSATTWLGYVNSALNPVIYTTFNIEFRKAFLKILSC
Sequence of Motilin receptor (O43193 whole entry): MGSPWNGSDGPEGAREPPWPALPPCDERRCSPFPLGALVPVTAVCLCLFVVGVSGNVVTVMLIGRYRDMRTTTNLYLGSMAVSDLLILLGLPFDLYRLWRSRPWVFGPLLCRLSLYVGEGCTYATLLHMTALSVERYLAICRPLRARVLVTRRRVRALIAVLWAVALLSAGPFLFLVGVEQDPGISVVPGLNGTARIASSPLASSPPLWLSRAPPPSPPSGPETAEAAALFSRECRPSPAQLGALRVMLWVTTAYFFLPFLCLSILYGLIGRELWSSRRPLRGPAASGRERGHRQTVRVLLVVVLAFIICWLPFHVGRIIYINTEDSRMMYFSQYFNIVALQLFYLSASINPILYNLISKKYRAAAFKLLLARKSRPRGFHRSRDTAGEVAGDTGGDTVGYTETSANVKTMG
Sequence of Gamma-aminobutyric acid receptor subunit alpha-1 (P62813 whole entry): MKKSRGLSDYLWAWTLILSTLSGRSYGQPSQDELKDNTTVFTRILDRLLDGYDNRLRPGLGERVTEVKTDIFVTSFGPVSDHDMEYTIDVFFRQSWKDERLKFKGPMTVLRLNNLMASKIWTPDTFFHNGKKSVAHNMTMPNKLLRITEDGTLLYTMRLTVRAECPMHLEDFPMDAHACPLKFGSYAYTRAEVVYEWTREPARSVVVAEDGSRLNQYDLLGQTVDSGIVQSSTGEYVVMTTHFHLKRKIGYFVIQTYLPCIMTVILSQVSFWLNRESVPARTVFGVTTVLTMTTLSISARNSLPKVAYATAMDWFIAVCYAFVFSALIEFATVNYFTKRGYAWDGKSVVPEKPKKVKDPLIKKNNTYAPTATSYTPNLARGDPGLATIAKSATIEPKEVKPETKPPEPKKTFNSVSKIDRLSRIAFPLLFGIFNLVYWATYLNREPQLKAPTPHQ
Sequence of Mu-type opioid receptor (P35372 whole entry): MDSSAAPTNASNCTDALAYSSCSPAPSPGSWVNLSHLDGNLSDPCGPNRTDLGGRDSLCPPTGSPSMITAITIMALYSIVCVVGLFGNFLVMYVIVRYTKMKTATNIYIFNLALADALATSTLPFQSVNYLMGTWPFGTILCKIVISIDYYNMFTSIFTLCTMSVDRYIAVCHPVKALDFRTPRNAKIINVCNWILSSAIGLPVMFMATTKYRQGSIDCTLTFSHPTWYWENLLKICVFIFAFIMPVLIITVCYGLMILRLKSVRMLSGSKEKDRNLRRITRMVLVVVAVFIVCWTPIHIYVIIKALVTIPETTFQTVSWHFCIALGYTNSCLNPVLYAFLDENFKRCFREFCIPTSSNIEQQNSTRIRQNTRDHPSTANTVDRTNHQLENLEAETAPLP
Sequence of Kappa-type opioid receptor (P41145 whole entry): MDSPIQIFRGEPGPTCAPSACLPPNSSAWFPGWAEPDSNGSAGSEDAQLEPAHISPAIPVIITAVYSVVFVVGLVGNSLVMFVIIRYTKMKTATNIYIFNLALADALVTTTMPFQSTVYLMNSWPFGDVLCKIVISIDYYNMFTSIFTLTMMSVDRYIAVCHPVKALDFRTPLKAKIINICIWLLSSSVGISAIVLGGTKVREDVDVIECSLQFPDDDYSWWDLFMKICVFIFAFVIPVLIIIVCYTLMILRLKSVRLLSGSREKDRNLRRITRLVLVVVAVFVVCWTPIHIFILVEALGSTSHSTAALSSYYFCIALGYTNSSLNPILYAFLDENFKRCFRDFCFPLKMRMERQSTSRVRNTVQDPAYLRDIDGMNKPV
Sequence of Vasopressin V2 receptor (P30518 whole entry): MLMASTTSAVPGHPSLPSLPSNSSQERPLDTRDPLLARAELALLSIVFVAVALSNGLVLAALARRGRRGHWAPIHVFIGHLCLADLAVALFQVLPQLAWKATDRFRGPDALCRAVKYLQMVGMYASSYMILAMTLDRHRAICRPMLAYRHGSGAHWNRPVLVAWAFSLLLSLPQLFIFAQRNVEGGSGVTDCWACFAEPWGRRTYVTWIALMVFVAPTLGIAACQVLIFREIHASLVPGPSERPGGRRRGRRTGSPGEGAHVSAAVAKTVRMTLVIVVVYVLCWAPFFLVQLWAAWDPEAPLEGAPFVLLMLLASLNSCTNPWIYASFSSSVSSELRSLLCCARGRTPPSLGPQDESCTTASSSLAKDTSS
Sequence of 5-hydroxytryptamine receptor 2B (P41595 whole entry): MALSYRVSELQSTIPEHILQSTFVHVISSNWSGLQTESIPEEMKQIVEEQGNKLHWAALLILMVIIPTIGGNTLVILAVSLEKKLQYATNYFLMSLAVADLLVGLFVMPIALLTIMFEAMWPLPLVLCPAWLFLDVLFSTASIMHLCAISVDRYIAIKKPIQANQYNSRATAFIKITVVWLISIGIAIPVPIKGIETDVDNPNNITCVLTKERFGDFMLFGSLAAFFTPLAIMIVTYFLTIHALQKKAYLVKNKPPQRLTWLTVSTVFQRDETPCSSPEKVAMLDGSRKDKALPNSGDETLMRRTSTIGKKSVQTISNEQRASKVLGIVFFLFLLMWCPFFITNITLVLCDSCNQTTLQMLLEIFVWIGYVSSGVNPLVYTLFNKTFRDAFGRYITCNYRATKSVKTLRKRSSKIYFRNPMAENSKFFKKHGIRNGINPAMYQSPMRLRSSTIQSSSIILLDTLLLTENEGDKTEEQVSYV
Sequence of Cannabinoid receptor 1 (P21554 whole entry): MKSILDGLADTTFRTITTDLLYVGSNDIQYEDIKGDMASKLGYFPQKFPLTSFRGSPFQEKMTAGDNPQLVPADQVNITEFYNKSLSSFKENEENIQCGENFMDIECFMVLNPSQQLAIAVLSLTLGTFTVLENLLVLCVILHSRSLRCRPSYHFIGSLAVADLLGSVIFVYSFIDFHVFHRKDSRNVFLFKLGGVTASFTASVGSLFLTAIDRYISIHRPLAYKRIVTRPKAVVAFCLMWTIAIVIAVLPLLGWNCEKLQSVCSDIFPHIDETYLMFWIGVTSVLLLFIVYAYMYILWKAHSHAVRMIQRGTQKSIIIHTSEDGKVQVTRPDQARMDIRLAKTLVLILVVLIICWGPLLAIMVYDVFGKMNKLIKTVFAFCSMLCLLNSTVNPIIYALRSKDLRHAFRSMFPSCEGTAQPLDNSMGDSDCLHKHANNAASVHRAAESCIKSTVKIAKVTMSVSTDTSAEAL
Sequence of Adenosine receptor A2a (P29274 whole entry): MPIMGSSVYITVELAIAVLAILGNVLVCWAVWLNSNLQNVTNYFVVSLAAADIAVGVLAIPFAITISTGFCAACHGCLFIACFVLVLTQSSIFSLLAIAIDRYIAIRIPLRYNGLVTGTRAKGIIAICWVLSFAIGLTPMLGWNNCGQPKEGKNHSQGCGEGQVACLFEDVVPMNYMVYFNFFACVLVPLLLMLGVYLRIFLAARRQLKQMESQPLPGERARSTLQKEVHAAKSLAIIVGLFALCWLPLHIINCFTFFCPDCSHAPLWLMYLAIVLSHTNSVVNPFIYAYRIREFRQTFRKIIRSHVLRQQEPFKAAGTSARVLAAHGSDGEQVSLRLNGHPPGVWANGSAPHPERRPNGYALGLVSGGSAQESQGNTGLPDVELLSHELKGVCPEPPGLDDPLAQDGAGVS
Sequence of Sodium-dependent serotonin transporter (P31645 whole entry): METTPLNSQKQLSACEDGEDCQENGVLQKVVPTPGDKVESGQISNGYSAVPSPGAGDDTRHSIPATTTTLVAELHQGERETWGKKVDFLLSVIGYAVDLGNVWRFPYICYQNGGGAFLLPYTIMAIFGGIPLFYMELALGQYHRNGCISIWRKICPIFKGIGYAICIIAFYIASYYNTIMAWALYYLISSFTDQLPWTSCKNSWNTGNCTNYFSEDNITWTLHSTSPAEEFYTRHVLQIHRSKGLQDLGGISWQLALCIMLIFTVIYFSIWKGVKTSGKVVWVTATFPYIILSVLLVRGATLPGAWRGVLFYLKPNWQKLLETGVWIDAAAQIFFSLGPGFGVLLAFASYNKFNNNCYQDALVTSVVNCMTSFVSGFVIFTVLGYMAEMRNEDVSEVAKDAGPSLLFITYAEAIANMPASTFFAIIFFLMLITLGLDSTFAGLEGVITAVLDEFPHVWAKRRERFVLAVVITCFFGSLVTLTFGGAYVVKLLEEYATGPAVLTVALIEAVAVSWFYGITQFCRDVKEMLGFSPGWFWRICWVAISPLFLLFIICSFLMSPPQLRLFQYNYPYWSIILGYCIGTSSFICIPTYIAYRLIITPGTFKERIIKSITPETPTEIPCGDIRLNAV

CC(C)CN(C[C@@H](O)[C@H](Cc1ccccc1)NC(=O)O[C@H]1CCOC1)S(=O)(=O)c1ccc(N)cc1
AC50 (Adenosine receptor A2a): > 30 µM | AC50 [1]: > 10 µM | AC50 (Vasopressin V2 receptor): > 30 µM | AC50 (B2 bradykinin receptor): > 30 µM | AC50 [2]: > 30 µM | AC50 (Cannabinoid receptor 1): > 30 µM | AC50 (Estrogen receptor): > 10 µM | AC50 [3]: > 10 µM | AC50 [4]: > 10 µM | AC50 (Motilin receptor): 7.3 µM | AC50 [5]: > 10 µM | AC50 (Mu-type opioid receptor): > 30 µM | AC50 (D(3) dopamine receptor): > 30 µM

Cc1nnc2n1-c1ccc(Cl)cc1C(c1ccccc1)=NC2 [ALPRAZOLAM]
AC50 (Adenosine receptor A2a): > 30 µM | AC50 [1]: > 10 µM | AC50 (Vasopressin V2 receptor): > 30 µM | AC50 (B2 bradykinin receptor): > 30 µM | AC50 [2]: > 30 µM | AC50 (Cannabinoid receptor 1): > 30 µM | AC50 (Estrogen receptor): > 30 µM | AC50 [3]: 0.0042 µM | AC50 [4]: > 10 µM | AC50 (Motilin receptor): > 10 µM | AC50 [5]: 7.48 µM | AC50 (Mu-type opioid receptor): > 30 µM | AC50 (D(3) dopamine receptor): > 10 µM

O=C1CN=C(c2ccccc2Cl)c2cc([N+](=O)[O-])ccc2N1 [CLONAZEPAM]
AC50 (Adenosine receptor A2a): > 30 µM | AC50 [1]: > 10 µM | AC50 (Vasopressin V2 receptor): > 30 µM | AC50 (B2 bradykinin receptor): > 30 µM | AC50 [2]: > 30 µM | AC50 (Cannabinoid receptor 1): > 30 µM | AC50 (Estrogen receptor): > 30 µM | AC50 [3]: 0.0025 µM | AC50 [4]: > 10 µM | AC50 (Motilin receptor): > 10 µM | AC50 [5]: > 10 µM | AC50 (Mu-type opioid receptor): > 30 µM | AC50 (D(3) dopamine receptor): > 10 µM

CC(=O)Oc1cccc2c1C(=O)c1c(OC(C)=O)cc(C(=O)O)cc1C2=O [DIACEREIN]
AC50 (Adenosine receptor A2a): 24 µM | AC50 [6]: > 30 µM | AC50 (Vasopressin V2 receptor): > 30 µM | AC50 (B2 bradykinin receptor): 28 µM | AC50 [2]: > 30 µM | AC50 (Cannabinoid receptor 1): > 30 µM | AC50 [3]: > 30 µM | AC50 (Motilin receptor): > 30 µM | AC50 [5]: > 30 µM | AC50 [7]: 23 µM | AC50 (D(3) dopamine receptor): > 30 µM

CCOC(=O)C1=C(C)NC(C)=C(C(=O)OC)C1c1cccc(Cl)c1Cl (stereo not drawn) [FELODIPINE]
AC50 (Adenosine receptor A2a): > 30 µM | AC50 [1]: > 10 µM | AC50 (Vasopressin V2 receptor): > 30 µM | AC50 (B2 bradykinin receptor): > 30 µM | AC50 [2]: > 30 µM | AC50 (Cannabinoid receptor 1): > 30 µM | AC50 (Estrogen receptor): > 30 µM | AC50 [3]: > 10 µM | AC50 [4]: > 10 µM | AC50 (Motilin receptor): > 10 µM | AC50 [5]: 8.88 µM | AC50 (Mu-type opioid receptor): > 10 µM

CN1C2CCCC1CC(NC(=O)c1nn(C)c3ccccc13)C2 (stereo not drawn) [GRANISETRON]
AC50 (Adenosine receptor A2a): > 30 µM | AC50 [1]: > 10 µM | AC50 (Vasopressin V2 receptor): > 30 µM | AC50 (B2 bradykinin receptor): > 30 µM | AC50 [2]: > 30 µM | AC50 (Cannabinoid receptor 1): > 30 µM | AC50 (Estrogen receptor): > 30 µM | AC50 [3]: > 10 µM | AC50 [4]: > 10 µM | AC50 (Motilin receptor): > 10 µM | AC50 [5]: > 10 µM | AC50 (Mu-type opioid receptor): > 10 µM | AC50 (D(3) dopamine receptor): > 10 µM

CC1Cc2ccccc2N1NC(=O)c1ccc(Cl)c(S(N)(=O)=O)c1 (stereo not drawn) [INDAPAMIDE]
AC50 (Adenosine receptor A2a): > 30 µM | AC50 [1]: > 10 µM | AC50 (Vasopressin V2 receptor): > 30 µM | AC50 (B2 bradykinin receptor): > 30 µM | AC50 [2]: > 30 µM | AC50 (Cannabinoid receptor 1): > 30 µM | AC50 (Estrogen receptor): > 30 µM | AC50 [3]: > 10 µM | AC50 [4]: > 10 µM | AC50 (Motilin receptor): > 10 µM | AC50 [5]: > 10 µM | AC50 (Mu-type opioid receptor): > 30 µM | AC50 (D(3) dopamine receptor): > 30 µM

Source: ChEMBL document CHEMBL5291721, “A preclinical secondary pharmacology resource illuminates target-adverse drug reaction associations of marketed drugs” (Nat Commun, 2023)
